Test results reported in patent US6642216B2, “Isoprenoid pathway inhibitors for stimulating bone growth” (ZymoGenetics Corporation, priority 1996, dated 2003).

Columns and labels:
neonatal mouse calvaria = assay: Neonatal mouse calvaria assay (in vitro bone formation); type: cell-based; design: Osteoblast Number, % increase over vehicle control / New Bone Area, % increase over vehicle control: concentration or dose not given beside the values
Experimental: Briefly, four days after birth, the front and parietal bones of ICR Swiss white mouse pups are removed by microdissection and split along the sagittal suture.
Three μm sections of the calvaria are prepared. Representative sections are selected for histomorphometric assessment of bone formation or bone resorption. Bone changes are measured on sections cut 200 μm apart. Osteoblasts and osteoclasts are identified by their distinctive morphology.
Selected compounds and appropriate controls were assayed in vitro (ex vivo) for bone formation activity (described above in “Neonatal Mouse Calvaria Assay (in vitro)”). Histomorphometrical assessments of ex vivo calvaria were carried out using an OsteoMetrics bone morphometry measurement program, according to the manufacturer's instructions. Measurements were determined using either a 10- or 20-fold objective with a standard point counting eyepiece graticule.
New bone formation was determined (using a 10× objective) by measuring the new bone area formed in one field in 3 representative sections of each bone (4 bones per group). Each measurement was carried out ½ field distance from the end of the suture. Both total bone and old bone area were measured. Data were expressed as new bone area in mm^2.
Osteoblast numbers were determined by point counting. The number of osteoblast cells lining the bone surface on both sides of the bone were counted in one field using a 20× objective. Data were expressed as osteoblast numbers/mm of bone surface.
The results were calculated as new bone area in mm^2×10^−3, as above.

[1] = test system: ICR Swiss white mice calvaria; assay: In vivo murine calvarial bone growth assay; design: species or system mouse
Experimental: Male ICR Swiss white mice, aged 4-6 weeks and weighing 13-26 gm, are employed, using 4-5 mice per group. The calvarial bone growth assay is performed as described in PCT application WO 95/24211, incorporated by reference. Briefly, the test compound or appropriate control vehicle is injected into the subcutaneous tissue over the right calvaria of normal mice. Typically, the control vehicle is the vehicle in which the compound was solubilized, and is PBS containing 5% DMSO or is PBS containing Tween (2 μl/10 ml). The animals are sacrificed on day 14 and bone growth measured by histomorphometry. Bone samples for quantitation are cleaned from adjacent tissues and fixed in 10% buffered formalin for 24-48 hours, decalcified in 14% EDTA for 1-3 weeks, processed through graded alcohols; and embedded in paraffin wax. Three to five μm sections of the calvaria are prepared, and representative sections are selected for histomorphometric assessment of the effects on bone formation and bone resorption. Sections are measured by using a camera lucida attachment to trace directly the microscopic image onto a digitizing plate. Bone changes are measured on sections cut 200 μm apart, over 4 adjacent 1×1 mm fields on both the injected and noninjected sides of the calvaria. New bone is identified by its characteristic woven structure, and osteoclasts and osteoblasts are identified by their distinctive morphology. Histomorphometry software (OsteoMeasure, Osteometrix, Inc., Atlanta) is used to process digitizer input to determine cell counts and measure areas or perimeters.
The results are reported as a measurement of total bone area (and % increase in area over vehicle control), as shown below.

BMP-2 promoter = assay: ABA assay: BMP-2 promoter-luciferase reporter in 2T3-BMP-2-LUC osteoblast cells; type: cell-based, mouse

With `CCC(C)(C)C(=O)O[C@H]1C[C@@H](C)C=C2C=C[C@H](C)[C@H](CC[C@@H]3C[C@@H](O)CC(=O)O3)[C@H]21` [Simvastatin, simvastatin] as the compound, how does the “New Bone Area” value (neonatal mouse calvaria; Experiment 1, 3 days) read?
Its value is 8.5 mm^2 × 10^−3.

And the “New Bone Area, % increase over vehicle control” value (“New Bone Area, % increase” below) (neonatal mouse calvaria; Experiment 1, 3 days)?
Its value is 77%.

And the “Osteoblast Number” value (neonatal mouse calvaria; Experiment 1, 3 days)?
The value was 156 Obs/field.

What about the “Osteoblast Number, % increase over vehicle control” value (shortened to “Osteoblast Number, % increase”) (neonatal mouse calvaria; Experiment 1, 3 days) of the same compound?
The value was 63%.

And the “New Bone Area” value (neonatal mouse calvaria; Experiment 1, 7 days)?
Its value is 17.4 mm^2 × 10^−3.

What about the “New Bone Area, % increase” value (neonatal mouse calvaria; Experiment 1, 7 days) of the same compound?
Its value is 123%.

What about the “Osteoblast Number” value (neonatal mouse calvaria; Experiment 1, 7 days) of the same compound?
Its value is 154 Obs/field.

And the “Osteoblast Number, % increase” value (neonatal mouse calvaria; Experiment 1, 7 days)?
Its value is 68%.

What about the “New Bone Area” value (neonatal mouse calvaria; Experiment 2, 3 days) of the same compound?
Its value is 15.4 mm^2 × 10^−3.

And the “New Bone Area, % increase” value (neonatal mouse calvaria; Experiment 2, 3 days)?
Its value is 285%.

And the “Osteoblast Number” value (neonatal mouse calvaria; Experiment 2, 3 days)?
Its value is 154 Obs/field.

And the “Osteoblast Number, % increase” value (neonatal mouse calvaria; Experiment 2, 3 days)?
The value was 70%.

And the “New Bone Area” value (neonatal mouse calvaria; combination study, IBN (1 μM), 59-0328 0.1 μM alone)?
Its value is 5.1 ± 0.49 mm^2 × 10^−3.

And the “New Bone Area” value (neonatal mouse calvaria; combination study, IBN (1 μM), 59-0328 0.2 μM alone)?
The value was 5.23 ± 0.89 mm^2 × 10^−3.

What about the “New Bone Area” value (neonatal mouse calvaria; combination study, IBN (10 μM), 59-0328 0.1 μM alone) of the same compound?
The value was 4.25 ± 0.59 mm^2 × 10^−3.

What about the “New Bone Area” value (neonatal mouse calvaria; combination study, IBN (10 μM), 59-0328 0.2 μM alone) of the same compound?
Its value is 6.83 ± 1.54 mm^2 × 10^−3.

And the “% increase in total bone area over vehicle control” value (“% increase in total bone area” for short) ([1]; 1 mg/kg/day)?
The value was 2%.

And the “Total Bone Area” value ([1]; 1 mg/kg/day)?
The value was 172 μm^2.

And the “% increase in total bone area” value ([1]; 5 mg/kg/day)?
Its value is 20%.

And the “Total Bone Area” value ([1]; 5 mg/kg/day)?
The value was 202 μm^2.

What about the “% increase in total bone area” value ([1]; 10 mg/kg/day) of the same compound?
The value was 46%.

And the “Total Bone Area” value ([1]; 10 mg/kg/day)?
Its value is 245 μm^2.

And the “increase in the number of osteoblasts” value ([1]; mouse, in vivo)?
Its value is 1.5 fold.

What about the “% 59-0008 Response” value (BMP-2 promoter; Experiment 1, 0.195312 μg/ml) of the same compound?
Its value is 29.030%.

What about the “% 59-0008 Response” value (BMP-2 promoter; Experiment 1, 0.390625 μg/ml) of the same compound?
The value was 38.210%.

What about the “% 59-0008 Response” value (BMP-2 promoter; Experiment 1, 0.78125 μg/ml) of the same compound?
The value was 69.600%.

What about the “% 59-0008 Response” value (BMP-2 promoter; Experiment 1, 1.5625 μg/ml) of the same compound?
Its value is 99.170%.

And the “% 59-0008 Response” value (BMP-2 promoter; Experiment 1, 3.125 μg/ml)?
Its value is 135.610%.

What about the “% 59-0008 Response” value (BMP-2 promoter; Experiment 1, 6.25 μg/ml) of the same compound?
Its value is 141.970%.

And the “% 59-0008 Response” value (BMP-2 promoter; Experiment 1, 12.5 μg/ml)?
The value was 131.300%.

What about the “% 59-0008 Response” value (BMP-2 promoter; Experiment 1, 25 μg/ml) of the same compound?
The value was 148.310%.

And the “% 59-0008 Response” value (BMP-2 promoter; Experiment 1, 50 μg/ml)?
The value was −22.950%.

What about the “% 59-0008 Response” value (BMP-2 promoter; Experiment 1, 100 μg/ml) of the same compound?
The value was −23.010%.

And the “% 59-0008 Response” value (BMP-2 promoter; Experiment 1, 200 μg/ml)?
The value was −22.960%.

And the “% 59-0008 Response” value (BMP-2 promoter; Experiment 2, 0.465820 μM, 0.195312 μg/ml)?
Its value is 0.310%.

And the “% 59-0008 Response” value (BMP-2 promoter; Experiment 2, 0.931640 μM, 0.390625 μg/ml)?
Its value is 2.600%.

And the “% 59-0008 Response” value (BMP-2 promoter; Experiment 2, 1.863281 μM, 0.78125 μg/ml)?
Its value is 6.820%.

And the “% 59-0008 Response” value (BMP-2 promoter; Experiment 2, 3.726562 μM, 1.5625 μg/ml)?
Its value is 19.670%.

What about the “% 59-0008 Response” value (BMP-2 promoter; Experiment 2, 7.453125 μM, 3.125 μg/ml) of the same compound?
The value was 51.660%.

What about the “% 59-0008 Response” value (BMP-2 promoter; Experiment 2, 14.90625 μM, 6.25 μg/ml) of the same compound?
The value was 104.640%.

What about the “% 59-0008 Response” value (BMP-2 promoter; Experiment 2, 29.8125 μM, 12.5 μg/ml) of the same compound?
The value was 152.290%.

And the “% 59-0008 Response” value (BMP-2 promoter; Experiment 2, 59.625 μM, 25 μg/ml)?
Its value is 180.640%.

And the “% 59-0008 Response” value (BMP-2 promoter; Experiment 2, 119.25 μM, 50 μg/ml)?
Its value is 189.430%.

And the “% 59-0008 Response” value (BMP-2 promoter; Experiment 2, 238.5 μM, 100 μg/ml)?
Its value is 304.100%.

What about the “% 59-0008 Response” value (BMP-2 promoter; Experiment 2, 477 μM, 200 μg/ml) of the same compound?
Its value is 222.180%.
